Assay results: patent US20240041898A9, “NEUROSTEROIDS AND ENANTIOMERS THEREOF FOR THE PREVENTION AND TREATMENT OF NEURODEGENERATIVE CONDITIONS” (priority 2019, published 2024)
Where “and” joins values, the source holds several entries; their conditions need not be identical. Equal entries are not always repeated.

Key:
[1] = tested on: nerve fiber layer (NFL) of retina; assay: Ex vivo pressure-loaded retinas, electron microscopy of autophagosomes (AP) and degenerative autophagic vacuoles (DAV); type: cell-based, rat; details: 75 mmHg, 1 μM; for Autophagosomes (AP) in the NFL, Total / Degenerative autophagic vacuoles (DAV) in the NFL, Total: Total of 10 areas of 25 μm2; for Autophagosomes (AP)/25 μm2 in the NFL, individual areas 1-10 / Degenerative autophagic vacuoles (DAV)/25 μm2 in the NFL, individual areas 1-10: single values
Protocol: (§1) Rat ex vivo Eyecup Preparation—Rat ex vivo eyecups were prepared from 28-32 day old male Sprague-Dawley rats (Charles River Laboratories International Inc., Wilmington, MA). The anterior half of the enucleated eyes was carefully removed to make eyecup preparations. Eyecups were placed at the bottom of a 100 ml glass beaker filled with aCSF (artificial cerebrospinal fluid) containing (in mM): 124 NaCl, 5 KCl, 2 MgSO4, 2 CaCl2, 1.25 NaH2PO4, 22 NaHCO3, and 10 glucose, and incubated at 30° C. for 24 hours using a closed pressure-loading system (FIG. 1C). pH was maintained at 7.35 to 7.40. In the closed-pressure system, a glass beaker with the eyecup was placed at the bottom of an acrylic pressure chamber (2,000 ml volume). A 95% O2-5% CO2 gas mixture was delivered through disposable plastic tubing with an infusion valve and a control dial on the lid of the pressure chamber and an air filter (Cat #SLGP033RS, Merck Millipore, Billerica, MA). The plastic tubing delivering the gas terminated 1 cm above the bottom of the beaker.
(§2) Acutely prepared eyecups were incubated in gassed aCSF for at least 1 h at 30° C. before pressure loading. In some experiments, AlloP (1 μM), ent-AlloP (1 μM), and 3-MA (10 mM) were dissolved in aCSF at the time of experiment and administered by bath perfusion. Eyecup preparations were treated with these drugs for 1 h at 30° C. before pressure loading. For pressure loading, the 95% O2-5% CO2 gas mixture was infused until the pressure reading given by a manometer reached the appropriate level. The pressure was then locked by adjusting the control dial of the effusion valve, and monitored continuously for 24 h at 30° C.
Electron Microscopy—Retinal specimens were trimmed to a smaller size, and ultrathin sections (75 nm) were cut with a diamond knife and suspended over formvar-coated slot grids (1×2 mm opening). The sections were stained with uranyl acetate and lead citrate and viewed in a transmission electron microscope (H-7650, Hitachi High-Technologies Corp., Tokyo, Japan). Numbers of AP and DAV inside NFLs and axons were determined as the sum in 10 different areas of 25 μm^2 each from each sample. The analysis was performed in three eyes per experimental condition.

[2] = tested on: retinal ganglion cells (RGCs); assay: Ex vivo pressure-loaded whole mounted retinas, NeuN-positive RGC survival; type: cell-based, rat; details: 75 mmHg, 1 μM; for RGC Survival (number of NeuN-positive cells), individual areas 1-5: single values
Protocol: as §1, §2
Preparation of whole mounted retinas and immunostaining—The retina was carefully detached from the eye by making cuts along the ora serrata and optic nerve. […] Each quadrant was analyzed using a 1 mm^2 frame, and counted using Image-Pro Plus software. […] RGC counts were analyzed using Image-Pro Plus software. NeuN positive RGCs were determined as the measurement of 5 different areas from three eyes per experimental condition.

Row | Compound | RGC axon swelling, electron microscopy [1] | Autophagosomes (AP) in the NFL, Total [1] | Degenerative autophagic vacuoles (DAV) in the NFL, Total [1] | Autophagosomes (AP)/25 μm2 in the NFL, individual areas 1-10 [1] | Degenerative autophagic vacuoles (DAV)/25 μm2 in the NFL, individual areas 1-10 [1] | RGC Survival (number of NeuN-positive cells), Average ([2]; Average of 5) [per square millimeter] | RGC Survival (number of NeuN-positive cells), individual areas 1-5 [2]
1 | CC(=O)[C@H]1CC[C@H]2[C@@H]3CC[C@H]4C[C@H](O)CC[C@]4(C)[C@H]3CC[C@]12C [AlloP, allopregnanolone] | protected RGC axons from high pressure | 16 | 8 | 0 /25 μm2 (2×) and 2 /25 μm2 (6×) and 3 /25 μm2 and 1 /25 μm2 | 0 /25 μm2 (4×) and 1 /25 μm2 (5×) and 3 /25 μm2 | 2084.0 | 2220 per square millimeter and 2240 per square millimeter and 1860 per square millimeter and 2260 per square millimeter and 1840 per square millimeter
2 | CC(=O)[C@@H]1CC[C@@H]2[C@H]3CC[C@@H]4C[C@@H](O)CC[C@@]4(C)[C@@H]3CC[C@]21C [ent-AlloP, ent-allopregnanolone] | protected RGC axons from high pressure | 1 | 22 | 0 /25 μm2 (9×) and 1 /25 μm2 | 1 /25 μm2 (3×) and 2 /25 μm2 (4×) and 4 /25 μm2 (2×) and 3 /25 μm2 | – | 2120 per square millimeter and 2280 per square millimeter and 2000 per square millimeter and 1840 per square millimeter and 1860 per square millimeter
